BigSolDB 2.1

CC1(C)COP(=O)(Oc2cccc(OP3(=O)OCC(C)(C)CO3)c2)OC1
solubility (mole fraction)
Details | 293.15 K | 298.15 K | 303.15 K | 308.15 K | 313.15 K | 318.15 K | 323.15 K | 328.15 K | 333.15 K
in 1,2-dichloroethane | 0.017 | 0.0199 | 0.0233 | 0.0273 | 0.0317 | 0.0366 | 0.0423 | 0.0491 | 0.0564
in acetone | 0.00607 | 0.00796 | 0.0103 | 0.0131 | 0.0163 | 0.0201 | 0.0251 | – | –
in acetonitrile | 0.0102 | 0.0127 | 0.0153 | 0.0191 | 0.0231 | 0.0279 | 0.0342 | 0.0405 | 0.0491
in chloroform | 0.0646 | 0.07 | 0.0751 | 0.0807 | 0.086 | 0.0923 | 0.0984 | – | –
in ethanol | 0.00179 | 0.0024 | 0.00313 | 0.00413 | 0.00541 | 0.00702 | 0.00902 | 0.0118 | 0.0151
in ethyl acetate | 0.0008 | 0.00099 | 0.00123 | 0.00154 | 0.00189 | 0.00233 | 0.00284 | 0.00348 | 0.0042
in ethyl formate | 0.00422 | 0.00508 | 0.00607 | 0.00713 | 0.00842 | 0.00988 | 0.0116 | – | –
in methanol | 0.0022 | 0.00357 | 0.00543 | 0.0085 | 0.0129 | 0.0187 | 0.0284 | – | –
in methyl acetate | 0.00229 | 0.00281 | 0.00347 | 0.00422 | 0.00511 | 0.0062 | 0.00745 | – | –
in n-hexane | 1e-05 | 2e-05 | 2e-05 | 4e-05 | 6e-05 | 8e-05 | 0.00012 | – | –
in n-propanol | 0.00096 | 0.00135 | 0.00187 | 0.0026 | 0.00356 | 0.00495 | 0.00658 | 0.00899 | 0.0118
in toluene | 0.00016 | 0.0002 | 0.00026 | 0.00032 | 0.0004 | 0.00049 | 0.00061 | 0.00076 | 0.0009
